The conditions of this data set: Liquid; for mass density: 303.15 K, 101.33 kPa, Pycnometric method; for vapor or sublimation pressure / Normal boiling temperature: Ebulliometric method (Recirculating still).

Numbers after ± are expanded uncertainties.

A word on the mass density: it is mass per unit of volume. The vapor or sublimation pressure is the pressure of vapour in equilibrium with the condensed phase. For the molecule `ClC(Cl)C(Cl)Cl` [1,1,2,2-tetrachloroethane], the mass density is given as 1578.59 ± 14 kg/m3 and the Normal boiling temperature is 145.20 ± 0.41 °C. Also, the “vapor or sublimation pressure” value (417.05 K) amounted to 95.3 ± 2 kPa.

Consider `ClCCCl` [1,2-dichloroethane], for which the mass density was found to be 1238.41 ± 8.6 kg/m3 and the Normal boiling temperature amounted to 83.80 ± 0.41 °C. Besides, the “vapor or sublimation pressure” value (355.05 K) came out at 95.3 ± 2 kPa.

Take `ClC(Cl)=C(Cl)Cl` [tetrachloroethene]: the mass density stood at 1606.39 ± 14 kg/m3 and the Normal boiling temperature came out at 121.00 ± 0.41 °C. Besides, where the note is “391.95 K”, the “vapor or sublimation pressure” value was 95.3 ± 2 kPa.

`CC(Cl)(Cl)Cl` [1,1,1-trichloroethane]: the mass density came out at 1320.97 ± 9.8 kg/m3 and the Normal boiling temperature was 74.20 ± 0.41 °C. For the same molecule, the “vapor or sublimation pressure” value (345.45 K) turned out to be 95.3 ± 2 kPa.

With `ClC=C(Cl)Cl` [trichloroethene], the mass density is 1451.42 ± 12 kg/m3 and the Normal boiling temperature came out at 87.10 ± 0.41 °C. The “vapor or sublimation pressure” value (357.75 K) is given as 95.3 ± 2 kPa.

With `C[S+](C)[O-]` [dimethyl sulfoxide], the mass density was 1090.4 ± 6.7 kg/m3 and the Normal boiling temperature came out at 189.04 ± 0.41 °C. Further, for the setting “460.95 K”, the “vapor or sublimation pressure” value stood at 95.3 ± 2 kPa.

The record behind these values is the NIST ThermoML archive (doi:10.1021/je700408x).
